The subject of data set [1] is HCT116 (Colon carcinoma). The experiment in a line: FMCA cytotoxicity, HCT116. In kind it is cell-based, human. The settings on record: 72 h. As for the experimental part:
(§1) The inventors also set out to characterize activity of the compounds A, B and C in cell lines representing cancer of different origin. The specific assays used and the conclusions from the mechanistic evaluation have previously been described in detail (Zhang et al. 2014). Compounds A, B and C (See FIG. 4) were evaluated for cytotoxicity expressed as survival index (SI) in six human tumor cell lines using the cell based fluorometric micro culture cytotoxicity assay (FMCA) as previously described in detail (Lindhagen et al, 2008). The method is based on measurement of fluorescent fluorescein, generated from hydrolysis of FDA by viable cells with intact plasma membrane. The fluorescence is proportional to the number of intact viable cells.
(§2) The cell lines were cultivated in the respective cell medium recommended by the provider. The medium was supplemented with 10% heat-inactivated fetal bovine serum, 2 mmol/L L-glutamine, 100 μg/mL streptomycin and 100 U/mL penicillin (all from Sigma-Aldrich). The cell line was cultured at 37° C. in a humidified atmosphere containing 5% CO2.
(§3) FMCA analysis in brief, 2500 cells per well were seeded into 384-well microplates and incubated over night before treatment with compounds. Compounds were added using acoustic liquid transfer (Echo 550, LabCyte). The plates were incubated at 37° C. for 72 h, and then washed and FDA was added to the wells followed by 50 min of incubation at 37° C. The fluorescence, which is proportional to the number of living cells in each well, was measured at 485/520 nm in a Fluoroskan instrument (Labsystems, GMI, Ramsey, Minn.). Cell survival is presented as Survival Index (SI), defined as the fluorescence value in the compound-treated wells analysed as percentage of the value in the control wells, with blank values subtracted. Quality criteria included a signal/blank ratio >10 and a coefficient of variation (CV) in control and blank wells <30%. Graph Pad Prism (San Diego, Calif., USA). All experiments were performed twice, and each concentration was evaluated in quadruplicates in each experiment. […]

The test system of data set [2] is RKO (Colon carcinoma). Kind of data set: FMCA cytotoxicity, RKO. The data set is classed as cell-based, human. The settings on record: 72 h. As for the experimental part:
as §1, §2, §3

The subject of data set [3] is HeLa (Cervix Adenocarcinoma). The experiment in a line: FMCA cytotoxicity, HeLa. In kind it is cell-based, human. Particulars: 72 h. The procedure: as §1, §2, §3
Data set [4] relates to HepG2 (Hepatocellular Carcinoma). The experiment in a line: FMCA cytotoxicity, HepG2. The data set is classed as cell-based, human. Particulars: 72 h. The procedure:
as §1, §2, §3

Data set [5] relates to CCRF-CEM (Acute lymphoblastic leukemia). The experiment in a line: FMCA cytotoxicity, CCRF-CEM. The data set is classed as cell-based, human. The settings on record: 72 h. The procedure: as §1, §2, §3
Data set [6] has as its system THP-1 (Acute Monocytic Leukemia). The experiment in a line: FMCA cytotoxicity, THP-1. The data set is classed as cell-based, human. Particulars: 72 h. As for the experimental part: as §1, §2, §3
Data set [7] concerns primary human tumor cell cultures, Appendix. The settings on record: 4 patients analyzed, 72 h. The procedure:
(§4) Cells were seeded in the drug-prepared 384-well plates using the pipetting robot Precision 2000 (Bio-Tek Instruments Inc., Winooski, Vt.).

The test system of data set [8] is primary human tumor cell cultures, Colorectal cancer. Particulars: 25 patients analyzed, 72 h. As for the experimental part: as §4
The subject of data set [9] is primary human tumor cell cultures, Gastric. The settings on record: 9 patients analyzed, 72 h. As for the experimental part:
as §4

The test system of data set [10] is primary human tumor cell cultures, Mesothelioma. Particulars: 7 patients analyzed, 72 h. As for the experimental part:
as §4

Data set [11] has as its system primary human tumor cell cultures, Ovarian. Particulars: 30 patients analyzed, 72 h. The procedure:
as §4

The subject of data set [12] is primary human tumor cell cultures, PMP (Pseudomyxoma Peritonei). The settings on record: 50 patients analyzed, 72 h. The procedure:
as §4

For data set [13], the system named is primary human tumor cell cultures, Pancreas. Particulars: 1 patient analyzed, 72 h. As for the experimental part:
as §4

Data set [14] relates to primary human tumor cell cultures, Renal. The settings on record: 13 patients analyzed, 72 h. The procedure: as §4
In data set [15] the test system is primary human tumor cell cultures, Small bowel. Particulars: 1 patient analyzed, 72 h. As for the experimental part:
as §4

The subject of data set [16] is various cell lines (CCRF-CEM, RPMI-8226, A2780, FaDu, HT29, MCF7, HL-60) and primary human tumor cell cultures. The settings on record: FIG. 3. The procedure: as §4
In data set [17] the test system is six human tumor cell lines. Kind of data set: FMCA cytotoxicity, six human tumor cell lines (overall). The data set is classed as cell-based. The settings on record: Table 6 and FIG. 4. As for the experimental part: as §1, §2, §3
[18] abbreviates: same sample re-analysed after 2 days.

Results on 1 compound are retold here after patent US10668056B2, “Pharmaceutical composition comprising indole derivatives, process for preparation and use thereof” (VIVOLUX AB, priority 2015, dated 2020).

As usually defined, the IC50 is the concentration that inhibits the measured activity by half. A lower IC50 goes with higher potency.

Where two headings read alike, the source gives them in different places. Some results are limits rather than exact numbers.

For the compound `C/C(=N\Nc1nnc2c(n1)[nH]c1c(C)cccc12)c1ccccn1` [Compound A, 2-[(1E,Z)-1-(2-{6-methyl-5H-[1,2,4]triazino[5,6-b]indole-3-yl}hydrazine-1-ylidene)ethyl]-pyridine], the IC50 was roughly 1 µM in data set [1]; less than 0.25 µM in data set [2]; roughly 20 µM in [3]; less than 0.25 µM in data set [4]; less than 0.25 µM in data set [5]; less than 0.25 µM in data set [6]. The concentration for half-maximal inhibition (IC50) in [7] came to 21 µM; in [8], 11 µM; in data set [9], 6.9 µM; in data set [10], 12 µM; in data set [11], 5.7 µM; in data set [12] it was 9.4 µM. Moreover, the figures for the IC50 in [13], in [14] and in data set [15] were 6 µM, 164 µM and 5.4 µM, respectively. Also, the anti-cancer activity entry in data set [16] is listed as “broad anti-cancer activity”. Moreover, in [17], the “activity on cancer cell lines” value is on record as “strong activity”. The Z-isomer content under setting [18] was roughly 2% and the Z-isomer content (sample preparation in 0.1% TFA/H2O, first analysis) was roughly 7%. The compound also returned a hydrolysis detected under setting [18] of roughly 1%.
